Measured values taken from paper PMC9268102, “Design, Synthesis and Biological Evaluation of 1,3,5-Triazine Derivatives Targeting hA1 and hA3 Adenosine Receptor” (Molecules, 2022).

Tests used:
Type in all cases: cell-based
[1] = system: A549 cells; assay: Cell viability (MTS) assay in A549 cells; conditions: Homo sapiens, 48 h
Experimental: To test the effect of the compounds in terms of cell growth regulation in lung cancer cell lines such as A549 and NCI-H1299 cells, these cells were treated in 96-well plates for 48 h with the compounds at concentrations ranging from 0 μM to 100 μM. […] Therefore, we decided to perform an additional experiment with 9c.
A549 and NCI-H1299 cells were seeded in 96-well plates at a density of 1 × 10^5 cells per well for 24 h before being exposed to compounds at various concentrations. After 48 h of compound treatment, the CellTiter 96 AQueous One Solution Cell Proliferation Assay Kit (Promega, Madison, WI, USA) was used to conduct a cell viability assay. The cells were incubated with solution reagents for 2 h at 37 °C before being measured for absorbance at 490 nm using a Synergy HTX Multi-Mode microplate reader (BioTek Instruments, Inc., Winooski, VT, USA).

[2] = system: A549 cells; assay: Intracellular ROS by H2DCF-DA flow cytometry; conditions: 48 h, control 1.26%
Source text: Although reactive oxygen species (ROS) play an important role in regulating normal cellular processes, abnormal ROS levels contribute to the development of a variety of human diseases, including cancer. Because of their accelerated metabolism, cancer cells have higher ROS levels than normal cells. Nevertheless, the high ROS content of cancer cells makes them more susceptible to oxidative stress-induced cell death, which can be used to target cancer cells selectively. Flow cytometry was used to determine whether 9c induces ROS generation in A549 cells by examining the results. The experiment was conducted with H2DCF-DA as a fluorescent probe. […] Next, we determined the effect of 9c in regulating mitochondrial ROS.
(§1) A549 cells were incubated with a fluorescent indicator, specifically 100 nM tetramethylrhodamine methyl ester perchlorate (TMRM, Thermo Fisher Scientific, Waltham, MA, USA), to determine the mitochondrial membrane potential. The A549 cells treated with the compound were harvested after 48 h, washed in PBS, and re-suspended in FACS buffer (PBS supplemented with 2 percent fetal bovine serum). […] Intracellular fluorescence measurements involved the use of a flow cytometer (BD FACSVerse, BD Biosciences, San Jose, CA, USA) and the FlowJo software (Version 10, TreeStar, Ashland, OR, USA).

[3] = system: A549 cells; assay: Mitochondrial membrane potential by TMRM flow cytometry; conditions: 48 h, control 93.8%
Experimental: ROS-induced oxidative stress can cause the rapid depolarization of the inner mitochondrial membrane potential (ΔΨm) and, as a result, impairment of oxidative phosphorylation. Using tetramethylrhodamine methyl ester (TMRM) measurements, we investigated how mitochondrial membrane potential was affected by 9c. A549 cells were exposed to 9c following incubation with TMRM. Afterward, flow cytometry was employed to calculate the intensity of TMRM binding in the healthy membrane.
as §1, with “serum). A flow cytometer (BD FACSVerse, BD Biosciences, San Jose, CA, USA) and the FlowJo software (FlowJo LLC, Ashland, OR, USA) were used to analyze the cells.” for “serum).”

SMILES: COc1cc(Nc2nc(N)nc(-c3ccc(O)cc3)n2)ccc1Cl [Compound 9c, 4-{4-amino-6-[(4-chloro-3-methoxyphenyl)amino]-1,3,5-triazin-2-yl}phenol]
- viability at 25 µM [1]: 59.9%
- ROS level (H2DCF-DA positive) ([2]; 20 μM): 7.31%
- ROS level (H2DCF-DA positive) ([2]; 40 μM): 22.6%
- TMRM-positive intensity, TMRM (+) ([3]; 20 μM): 74.6%
- TMRM-positive intensity, TMRM (+) ([3]; 40 μM): 52.3%
